Experimental data taken from ChEMBL document CHEMBL2074515, “Inhibitory effect of anti-diabetic agents on rat organic anion transporter rOAT1” (Eur J Pharmacol, 2000).

biological target: T1, Solute carrier family 22 member 6 (Rattus norvegicus, UniProt O35956); assay: TP_TRANSPORTER: inhibition of PAH uptake in Xenopus laevis oocytes; format: functional, cell-based, Oocyte
T1 sequence (O35956 whole entry): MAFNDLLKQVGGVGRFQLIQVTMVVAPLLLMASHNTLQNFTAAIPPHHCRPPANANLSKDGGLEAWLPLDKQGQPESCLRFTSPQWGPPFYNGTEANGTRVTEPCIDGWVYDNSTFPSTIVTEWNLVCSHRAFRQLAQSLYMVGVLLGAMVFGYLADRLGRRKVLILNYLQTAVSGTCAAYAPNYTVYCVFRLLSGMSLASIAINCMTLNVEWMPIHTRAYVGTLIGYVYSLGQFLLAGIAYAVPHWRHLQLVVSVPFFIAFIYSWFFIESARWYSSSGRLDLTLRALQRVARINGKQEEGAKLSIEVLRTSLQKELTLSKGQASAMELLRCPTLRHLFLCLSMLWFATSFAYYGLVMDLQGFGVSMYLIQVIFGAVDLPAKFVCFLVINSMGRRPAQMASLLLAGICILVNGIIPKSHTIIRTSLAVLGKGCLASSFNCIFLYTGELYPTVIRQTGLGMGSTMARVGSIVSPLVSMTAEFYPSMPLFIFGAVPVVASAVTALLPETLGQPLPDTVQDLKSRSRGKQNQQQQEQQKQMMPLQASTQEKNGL

Row | Ki [µM] | SMILES
1 | 9.2 | CC(C)[C@H]1CC[C@H](C(=O)N[C@H](Cc2ccccc2)C(=O)O)CC1 [NATEGLINIDE]
2 | 55.5 | CCCCNC(=O)NS(=O)(=O)c1ccc(C)cc1 [TOLBUTAMIDE]
3 | 1.6 | COc1ccc(Cl)cc1C(=O)NCCc1ccc(S(=O)(=O)NC(=O)NC2CCCCC2)cc1 [GLYBURIDE]
4 | 39.5 | CCCNC(=O)NS(=O)(=O)c1ccc(Cl)cc1 [CHLORPROPAMIDE]
